What was measured:
Format in all cases: in vivo
[1] = system: Brassica napus (winter rape); experiment: Greenhouse postemergence herbicidal effect, winter rape (BRSNW); details: 20-22 d; for % visual injury: Example 1
Description: (§1) Greenhouse Trial Methodology—Evaluation of Postemergence Herbicidal Effect
(§2) Seeds of the desired test plant species were planted in a 90:10% v/v (volume/volume) mixture of PRO-MIX® BX (Premier Tech Horticulture, Quakertown, Pa., USA) and PROFILE® GREENS GRADE™ (Profile Products LLC, Buffalo Grove, Ill., USA) planting mixture, which typically has a pH of 5.2 to 6.2 and an organic matter content of at least 50 percent, in plastic pots with a surface area of 103.2 square centimeters (cm^2). In some aspects, to ensure good germination and healthy plants, a fungicide treatment and/or other chemical or physical treatment was applied. The plants were grown for 7-36 days (d) in a greenhouse with an approximate 14-hour (h) photo-period which was maintained at about 23° C. during the day and 22° C. during the night. Nutrients and water were added on a regular basis and supplemental lighting was provided with overhead metal halide 1000-Watt lamps as necessary. The plants were employed for testing when they reached the second or third true leaf stage.
(§3) Emulsifiable concentrates of each of each pyridine carboxylate herbicide (Compound A or Compound B) were prepared at 100 grams acid equivalent per liter (g ae/L). The emulsifiable concentrates also included a safener, cloquintocet-mexyl, at 120 grams active ingredient per liter (g ai/L). An aliquot of each emulsifiable concentrate was placed in a 25 mL glass vial and diluted with an aqueous mixture of 1.25% (v/v) ACTIROB® B esterified rapeseed oil (Bayer Crop Science, Research Triangle Park, N.C., USA) or MSO® Concentrate with LECI-TECH® methylated soybean oil (Loveland Products, Loveland, Colo., USA) to obtain concentrated stock solutions at the highest application rate for each herbicide, based upon a 12 milliliter (mL) application volume at a rate of 187 liters per hectare (L/ha). The concentrated stock solutions were further diluted with an aqueous mixture of 1.25% v/v ACTIROB® B or MSO® Concentrate with LECI-TECH® to obtain stock solutions at reduced application rates for each herbicide. Spray solutions of the herbicide combinations (Compound A or Compound B plus glyphosate or glufosinate) were prepared by adding weighed amounts or aliquots of the glyphosate or glufosinate to the stock solutions of Compound A or Compound B to form 12-mL spray solutions in two-way combinations.
(§4) The spray solutions were applied to the plant material with an overhead Mandel track sprayer equipped with 8002E nozzles calibrated to deliver 187 L/ha over an application area of 0.503 square meters (m^2) at a spray height of 18 inches (43 centimeters (cm)) above the average plant canopy. Control plants were sprayed in the same manner with the solvent blank. All pyridine carboxylate herbicide (component a) application rates are given as “g ae/ha” and all glyphosate or glufosinate (component b) application rates are given as “g ai/ha.”
(§5) The treated plants and control plants were placed in a greenhouse as described above and watered by sub-irrigation to prevent wash-off of the test compounds. After 20-22 d, the condition of the test plants as compared with that of the control plants was determined visually and scored on a scale of 0 to 100 percent where 0 corresponds to no injury and 100 corresponds to complete kill.

[2] = system: Polygonum convolvulus (wild buckwheat); experiment: Greenhouse postemergence herbicidal effect, wild buckwheat (POLCO); details: 20-22 d; for % visual injury: Example 1
Description: as §1, §2, §3, §4, §5

[3] = system: Sinapis arvensis (wild mustard); experiment: Greenhouse postemergence herbicidal effect, wild mustard (SINAR); details: 20-22 d; for % visual injury: Example 1
Description: as §1, §2, §3, §4, §5

[4] = system: Salsola kali (Russian thistle); experiment: Greenhouse postemergence herbicidal effect, Russian thistle (SASKR); details: 20-22 d; for % visual injury: Example 1
Description: as §1, §2, §3, §4, §5

[5] = system: Kochia scoparia (kochia); experiment: Greenhouse postemergence herbicidal effect, kochia (KCHSC); details: 20-22 d; for % visual injury: Example 1
Description: as §1, §2, §3, §4, §5

[6] = system: Chenopodium album L. (common lambsquarters); experiment: Greenhouse postemergence herbicidal effect, common lambsquarters (CHEAL); details: 20-22 d; for % visual injury: Example 1
Description: as §1, §2, §3, §4, §5

[7] = system: Amaranthus retroflexus (pigweed); experiment: Greenhouse postemergence herbicidal effect, pigweed (AMARE); details: 20-22 d; for % visual injury: Example 1
Description: as §1, §2, §3, §4, §5

[8] = system: Matricaria chamomilla (wild chamomile); experiment: Greenhouse postemergence herbicidal effect, wild chamomile (MATCH); details: 20-22 d; for % visual injury: Example 1
Description: as §1, §2, §3, §4, §5

[9] = system: Cirsium arvense (Canadian thistle); experiment: Greenhouse postemergence herbicidal effect, Canadian thistle (CIRAR); details: 20-22 d; for % visual injury: Example 1
Description: as §1, §2, §3, §4, §5

[10] = system: Triticum aestivum (spring wheat); experiment: Greenhouse postemergence phytotoxicity on crop, spring wheat (TRZAS); details: 20-22 d; for % visual injury: Example 1
Description: as §1, §2, §3, §4, §5

[11] = system: Hordeum vulgare (spring barley); experiment: Greenhouse postemergence phytotoxicity on crop, spring barley (HORVS); details: 20-22 d; for % visual injury: Example 1
Description: as §1, §2, §3, §4, §5

[12] = system: Viola tricolor (wild pansy); experiment: Greenhouse postemergence herbicidal effect, wild pansy (VIOTR); details: Example 5, 20-22 d
Description: as §1, §2, §3, §4, §5

[13] = system: Stellaria media (chickweed); experiment: Greenhouse postemergence herbicidal effect, chickweed (STEME); details: Example 5, 20-22 d
Description: as §1, §2
(§6) Emulsifiable concentrates of each of each pyridine carboxylate herbicide (Compound A or Compound B) were prepared at 100 grams acid equivalent per liter (g ae/L). The emulsifiable concentrates also included a safener, cloquintocet-mexyl, at 120 grams active ingredient per liter (g ai/L). […]
as §5

[14] = system: Echinochloa crus-galli (barnyardgrass); experiment: Greenhouse postemergence herbicidal effect, barnyardgrass (ECHCG); details: Example 5, 20-22 d
Description: as §1, §2, §6, §5

[15] = system: Euphorbia heterophylla (poinsettia); experiment: Greenhouse postemergence herbicidal effect, poinsettia (EPHHL); details: Example 5, 20-22 d
Description: as §1, §2, §6, §5

[16] = system: Sorghum vulgare (grain sorghum); experiment: Greenhouse postemergence herbicidal effect, grain sorghum (SORVU); details: Example 5, 20-22 d
Description: as §1, §2, §6, §5

[17] = system: Cyperus esculentus (nutsedge); experiment: Greenhouse postemergence herbicidal effect, nutsedge (CYPES); details: Example 5, 20-22 d
Description: as §1, §2, §6, §5

[18] = system: Rumex obtusifolius (broad-leaf dock); experiment: Greenhouse postemergence herbicidal effect, broad-leaf dock (RUMOB); details: Example 5, 20-22 d
Description: as §1, §2, §6, §5

[19] = system: Ipomoea hederacea (ivyleaf morningglory); experiment: Greenhouse postemergence herbicidal effect, ivyleaf morningglory (IPOHE); details: Example 5, 20-22 d
Description: as §1, §2, §6, §5

[20] = system: Helianthus annuus (common sunflower); experiment: Greenhouse postemergence herbicidal effect, common sunflower (HELAN); details: Example 5, 20-22 d
Description: as §1, §2, §6, §5

[21] = Example 2, Compound A 7.5 g ae/ha alone
[22] = Example 2, Compound A 10 g ae/ha alone
[23] = Example 6, Compound A 7.5 g ae/ha alone
[24] = Example 6, Compound A 10 g ae/ha alone
[25] = Example 5, Compound A 7.5 g ae/ha alone
[26] = Example 5, Compound A 10 g ae/ha alone

## N#CCOC(=O)c1nc(-c2ccc3cc[nH]c3c2F)c(F)c(N)c1Cl [Compound A, cyanomethyl 4-amino-3-chloro-5-fluoro-6-(7-fluoro-1H-indol-6-yl)pyridine-2-carboxylate]
[1]; Compound A 7.5 g ae/ha alone
  % visual injury: 35%
[1]; Compound A 10 g ae/ha alone
  % visual injury: 43%
[1]; [21]
  % visual injury, Obs: 35%
[1]; [22]
  % visual injury, Obs: 40%
[1]; [23]
  % visual injury, Obs: 35%
[1]; [24]
  % visual injury, Obs: 40%
[2]; Compound A 7.5 g ae/ha alone
  % visual injury: 78%
[2]; Compound A 10 g ae/ha alone
  % visual injury: 93%
[2]; [21]
  % visual injury, Obs: 30%
[2]; [22]
  % visual injury, Obs: 43%
[2]; [25]
  % visual injury, Obs: 83%
[2]; [26]
  % visual injury, Obs: 93%
[2]; [23]
  % visual injury, Obs: 30%
[2]; [24]
  % visual injury, Obs: 43%
[3]; Compound A 7.5 g ae/ha alone
  % visual injury: 88%
[3]; Compound A 10 g ae/ha alone
  % visual injury: 90%
[3]; [21]
  % visual injury, Obs: 83%
[3]; [22]
  % visual injury, Obs: 88%
[3]; [23]
  % visual injury, Obs: 83%
[3]; [24]
  % visual injury, Obs: 88%
[4]; Compound A 7.5 g ae/ha alone
  % visual injury: 60%
[4]; Compound A 10 g ae/ha alone
  % visual injury: 63%
[4]; [21]
  % visual injury, Obs: 60%
[4]; [22]
  % visual injury, Obs: 63%
[4]; [23]
  % visual injury, Obs: 60%
[4]; [24]
  % visual injury, Obs: 63%
[5]; Compound A 7.5 g ae/ha alone
  % visual injury: 63%
[5]; Compound A 10 g ae/ha alone
  % visual injury: 63%
[5]; [21]
  % visual injury, Obs: 70%
[5]; [22]
  % visual injury, Obs: 70%
[5]; [25]
  % visual injury, Obs: 75%
[5]; [26]
  % visual injury, Obs: 73%
[5]; [23]
  % visual injury, Obs: 70%
[5]; [24]
  % visual injury, Obs: 70%
[6]; Compound A 7.5 g ae/ha alone
  % visual injury: 88%
[6]; Compound A 10 g ae/ha alone
  % visual injury: 93%
[6]; [21]
  % visual injury, Obs: 75%
[6]; [22]
  % visual injury, Obs: 80%
[6]; [23]
  % visual injury, Obs: 75%
[6]; [24]
  % visual injury, Obs: 80%
[7]; Compound A 7.5 g ae/ha alone
  % visual injury: 78%
[7]; Compound A 10 g ae/ha alone
  % visual injury: 73%
[7]; [21]
  % visual injury, Obs: 90%
[7]; [22]
  % visual injury, Obs: 85%
[7]; [23]
  % visual injury, Obs: 90%
[7]; [24]
  % visual injury, Obs: 85%
[8]; Compound A 7.5 g ae/ha alone
  % visual injury: 20%
[8]; Compound A 10 g ae/ha alone
  % visual injury: 30%
[8]; [21]
  % visual injury, Obs: 10%
[8]; [22]
  % visual injury, Obs: 20%
[8]; [23]
  % visual injury, Obs: 10%
[8]; [24]
  % visual injury, Obs: 20%
[9]; Compound A 7.5 g ae/ha alone
  % visual injury: 30%
[9]; Compound A 10 g ae/ha alone
  % visual injury: 40%
[9]; [21]
  % visual injury, Obs: 40%
[9]; [22]
  % visual injury, Obs: 55%
[9]; [25]
  % visual injury, Obs: 40%
[9]; [26]
  % visual injury, Obs: 60%
[9]; [23]
  % visual injury, Obs: 40%
[9]; [24]
  % visual injury, Obs: 55%
[10]; Compound A 7.5 g ae/ha alone
  % visual injury: 0%
[10]; Compound A 10 g ae/ha alone
  % visual injury: 0%
[10]; [21]
  % visual injury, Obs: 0%
[10]; [22]
  % visual injury, Obs: 0%
[10]; [23]
  % visual injury, Obs: 0%
[10]; [24]
  % visual injury, Obs: 0%
[11]; Compound A 7.5 g ae/ha alone
  % visual injury: 0%
[11]; Compound A 10 g ae/ha alone
  % visual injury: 0%
[11]; [21]
  % visual injury, Obs: 0%
[11]; [22]
  % visual injury, Obs: 0%
[11]; [23]
  % visual injury, Obs: 0%
[11]; [24]
  % visual injury, Obs: 0%
[12]; Compound A 7.5 g ae/ha alone
  % visual injury, Obs: 38%
[12]; Compound A 10 g ae/ha alone
  % visual injury, Obs: 15%
[13]; Compound A 7.5 g ae/ha alone
  % visual injury, Obs: 89%
[13]; Compound A 10 g ae/ha alone
  % visual injury, Obs: 90%
[14]; Compound A 7.5 g ae/ha alone
  % visual injury, Obs: 88%
[14]; Compound A 10 g ae/ha alone
  % visual injury, Obs: 80%
[15]; Compound A 7.5 g ae/ha alone
  % visual injury, Obs: 97%
[15]; Compound A 10 g ae/ha alone
  % visual injury, Obs: 97%
[16]; Compound A 7.5 g ae/ha alone
  % visual injury, Obs: 0%
[16]; Compound A 10 g ae/ha alone
  % visual injury, Obs: 0%
[17]; Compound A 7.5 g ae/ha alone
  % visual injury, Obs: 30%
[17]; Compound A 10 g ae/ha alone
  % visual injury, Obs: 8%
[18]; Compound A 7.5 g ae/ha alone
  % visual injury, Obs: 20%
[18]; Compound A 10 g ae/ha alone
  % visual injury, Obs: 13%
[19]; Compound A 7.5 g ae/ha alone
  % visual injury, Obs: 20%
[19]; Compound A 10 g ae/ha alone
  % visual injury, Obs: 25%
[20]; Compound A 7.5 g ae/ha alone
  % visual injury, Obs: 90%
[20]; Compound A 10 g ae/ha alone
  % visual injury, Obs: 89%
